Measurements as given in US20110104055A1, “SUBSTITUTED N-ARYL BENZAMIDES AND RELATED COMPOUNDS FOR TREATMENT OF AMYLOID DISEASES AND SYNUCLEINOPATHIES” (priority 2002, published 2011).

Tests used:
Assay type in all cases: biochemical
[1] = biological target: T1, Aβ 1-42 fibrils (Homo sapiens, UniProt P05067); test: Congo red binding assay, Aβ 1-42 fibrils (Example 11); conditions: 3-day incubation
T1 construct: purchased Bachem Inc
Description: (§1) In the Congo red binding assay, the ability of a test compound to alter amyloid (in this case, Aβ) binding to Congo red is quantified. In this assay, Aβ 1-42 and test compounds were incubated for 3 days and then vacuum filtered through a 0.2 μm filter. The amount of Aβ 1-42 retained in the filter was then quantitated following staining of the filter with Congo red. After appropriate washing of the filter, any lowering of the Congo red color on the filter in the presence of the test compound (compared to the Congo red staining of the amyloid protein in the absence of the test compound) was indicative of the test compound's ability to diminish/alter the amount of aggregated and congophilic Aβ.
In one study, the ability of Aβ fibrils to bind Congo red in the absence or presence of increasing amounts of the compounds or EDTA (at Aβ:test compound weight ratios of 1:1, 1:0.1, 1:0.01 or 1:0.001) was determined.

[2] = biological target: T2, α-synuclein fibrils (Homo sapiens, UniProt P37840); test: Congo red binding assay, α-synuclein fibrils (Example 12); conditions: 3-day incubation
T2 construct: purchased rPeptide
Description: as §1, with “of a given test compound” for “of a test compound”, “this case, α-synuclein) binding to” for “this case, Aβ) binding to”, “this assay, α-synuclein and test” for “this assay, Aβ 1-42 and test”, “amount of α-synuclein retained in” for “amount of Aβ 1-42 retained in”, “and congophilic α-synuclein.” for “and congophilic Aβ.”
In one study, the ability of α-synuclein fibrils to bind Congo red in the absence or presence of increasing amounts of compounds DC-0051-F1, F2, F3, F4, F5, F6 and EDTA (at α-synuclein:test compound weight ratios of 1:1, 1:0.1, 1:0.01 or 1:0.001) was determined.

[3] = biological target: T2, α-synuclein fibrils; test: Thioflavin T fluorometry, disruption of pre-formed α-synuclein fibrils (Example 12); conditions: 3 days; for disruption/disassembly of pre-formed α-synuclein fibrils, in words: Thioflavin T fluorometry, all concentrations tested; for % Inhibition α-synuclein (result ± S.D.), Thioflavin T fluorometry: 30 μg pre-fibrillized α-synuclein, 37° C.
Description: In this assay, Thioflavin T binds specifically to α-synuclein fibrils, and this binding produces a fluorescence enhancement at 485 nm that is directly proportional to the amount of α-synuclein fibrils present. The higher the fluorescence, the greater the amount of α-synuclein fibrils present (Naki et al, Lab. Invest. 65:104-110, 1991; Levine III, Protein Sci. 2:404-410, 1993; Amyloid: Int. J. Exp. Clin. Invest. 2:1-6, 1995).
In this study, 30 μg of pre-fibrillized α-synuclein (rPeptide) was incubated at 37° C. for 3 days either alone or in the presence of compounds DC-0051-F1, F2, F3, F4, F5, F6 or EDTA (at α-synuclein:test compound weight ratios of 1:1, 1:0.1, 1:0.01 or 1:0.001). Following 3-days of co-incubation, 50 μl of each incubation mixture was transferred into a 96-well microtiter plate containing 150 μl of distilled water and 50 μl of a Thioflavin T solution (i.e. […] Thioflavin T in 250 mM phosphate buffer, pH 6.8). The fluorescence was read at 485 nm (444 nm excitation wavelength) using an ELISA plate fluorometer after subtraction with buffer alone or compound alone, as blank.

[4] = biological target: T1, Aβ 1-42 fibrils; test: Thioflavin T fluorometry, disruption of pre-formed Aβ 1-42 fibrils (Example 11); conditions: 30 μg pre-fibrillized Aβ 1-42, 37° C., 3 days
Source text: In one study, Thioflavin T fluorometry was used to determine the effects of the compounds, and of EDTA (as a negative control). In this assay Thioflavin T binds specifically to fibrillar amyloid, and this binding produces a fluorescence enhancement at 485 nm that is directly proportional to the amount of amyloid fibrils formed. The higher the fluorescence, the greater the amount of amyloid fibrils formed (Naki et al., Lab. Invest. 65:104-110, 1991; Levine III, Protein Sci. 2:404-410, 1993; Amyloid: Int. J. Exp. Clin. Invest. 2:1-6, 1995).
Following 3-days of co-incubation, 50 μl of each incubation mixture was transferred into a 96-well microtiter plate containing 150 μl of distilled water and 50 μl of a Thioflavin T solution (i.e. 500 mM Thioflavin T in 250 mM phosphate buffer, pH 6.8). The fluorescence was read at 485 nm (444 nm excitation wavelength) using an ELISA plate fluorometer after subtraction with buffer alone or compound alone, as blank.

[5] = Aβ:test compound wt/wt ratio 1:0.001
[6] = Aβ:test compound wt/wt ratio 1:0.01
[7] = Aβ:test compound wt/wt ratio 1:0.1
[8] = Aβ:test compound wt/wt ratio 1:1
[9] = α-synuclein:test compound wt/wt ratio 1:0.001
[10] = α-synuclein:test compound wt/wt ratio 1:0.01
[11] = α-synuclein:test compound wt/wt ratio 1:0.1
[12] = α-synuclein:test compound wt/wt ratio 1:1

T1 sequence (P05067 672-713): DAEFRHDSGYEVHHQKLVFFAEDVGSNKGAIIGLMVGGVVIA

| % Inhibition Aβ (result ± S.D.), Congo red binding [1, 5] [%] | % Inhibition Aβ (result ± S.D.), Congo red binding [1, 6] [%] | % Inhibition Aβ (result ± S.D.), Congo red binding [1, 7] [%] | % Inhibition Aβ (result ± S.D.), Congo red binding [1, 8] [%] | % Inhibition α-synuclein (result ± S.D.), Congo red binding [2, 9] [%] | % Inhibition α-synuclein (result ± S.D.), Congo red binding [2, 10] [%] | % Inhibition α-synuclein (result ± S.D.), Congo red binding [2, 11] [%] | % Inhibition α-synuclein (result ± S.D.), Congo red binding [2, 12] [%] | disruption/disassembly of pre-formed α-synuclein fibrils, in words [3] | % Inhibition α-synuclein (result ± S.D.), Thioflavin T fluorometry [3, 9] [%] | % Inhibition α-synuclein (result ± S.D.), Thioflavin T fluorometry [3, 10] [%] | % Inhibition α-synuclein (result ± S.D.), Thioflavin T fluorometry [3, 11] [%] | % Inhibition α-synuclein (result ± S.D.), Thioflavin T fluorometry [3, 12] [%] | % Inhibition Aβ (result ± S.D.), Thioflavin T fluorometry [4, 5] [%] | % Inhibition Aβ (result ± S.D.), Thioflavin T fluorometry [4, 6] [%] | % Inhibition Aβ (result ± S.D.), Thioflavin T fluorometry [4, 7] [%] | % Inhibition Aβ (result ± S.D.), Thioflavin T fluorometry [4, 8] [%] | Structure (SMILES) |
| --- | --- | --- | --- | --- | --- | --- | --- | --- | --- | --- | --- | --- | --- | --- | --- | --- | --- |
| 3.7 ± 4.36 | 2.2 ± 7.70 | 27.5±2.39 | 80.1±2.61 | 0.0 ± 3.42 | 3.8 ± 5.82 | 32.9±2.97 | 69.8±2.67 | dose-dependent disruption/disassembly | 13.7 ± 6.06 | 58.4 ± 5.06 | 90.4 ± 2.07 | 100.0 ± 3.14 | 15.6 ± 2.01 | 37.1 ± 1.44 | 91.3 ± 1.39 | 98.7 ± 0.38 | O=C(Nc1ccc(O)c(O)c1)c1ccc(O)c(O)c1F [DC-0051-F1, 3,4-Dihydroxy-2-fluoro-N-(3,4-dihydroxyphenyl)benzamide] |
| 4.3 ± 11.81 | 8.8 ± 5.07 | 10.9 ± 5.05 | 71.0 ± 2.39 | 6.1 ± 8.92 | 0.0 ± 3.44 | 18.0 ± 0.58 | 64.8 ± 5.08 | dose-dependent disruption/disassembly | 6.1 ± 9.44 | 40.6 ± 1.49 | 94.3 ± 1.22 | 100.0 ± 2.84 | 16.0 ± 6.64 | 33.4 ± 2.09 | 79.8 ± 0.77 | 99.7 ± 0.58 | O=C(Nc1cc(O)c(O)c(F)c1)c1ccc(O)c(O)c1 [DC-0051-F4, N-(3-fluoro-4,5-dihydroxyphenyl)-3,4-dihydroxybenzamide] |
| 0.0 ± 2.50 | 9.8 ± 2.54 | 25.7 ± 5.69 | 69.9 ± 2.06 | 0.0 ± 1.01 | 5.0 ± 5.47 | 32.7 ± 3.96 | 69.4 ± 0.13 | dose-dependent disruption/disassembly | 5.9 ± 10.41 | 59.0 ± 1.18 | 94.7 ± 1.70 | 98.9 ± 0.65 | 19.5 ± 1.49 | 43.9±2.01 | 91.8±0.22 | 99.8 ± 0.40 | O=C(Nc1cc(O)c(O)cc1F)c1ccc(O)c(O)c1 [DC-0051-F5, N-(2-fluoro-4,5-dihydroxyphenyl)-3,4-dihydroxybenzamide] |
| 4.9 ± 7.88 | 0.5 ± 5.24 | 49.9±9.13 | 80.1±3.79 | 0.0 ± 6.71 | 3.7 ± 2.83 | 36.5±53.4 | 67.8±3.52 | dose-dependent disruption/disassembly | 15.9 ± 7.20 | 61.1±1.37 | 94.7±2.57 | 100.0 ± 1.49 | 17.1 ± 4.32 | 53.7±6.29 | 95.9±0.88 | 99.6 ± 0.55 | O=C(Nc1ccc(O)c(O)c1)c1cc(O)c(O)cc1F [DC-0051-F2, N-(3,4-dihydroxyphenyl)-2-fluoro-4,5-dihydroxy benzamide] |
| 3.7 ± 3.24 | 6.8 ± 1.51 | 18.3 ± 5.32 | 68.0 ± 2.11 | 0.0 ± 4.20 | 1.4 ± 5.69 | 29.9 ± 2.41 | 59.8 ± 3.62 | dose-dependent disruption/disassembly | 4.2 ± 5.02 | 56.2 ± 1.49 | 94.7 ± 0.68 | 100.0 ± 1.98 | 9.6 ± 0.96 | 36.8 ± 3.43 | 88.0 ± 1.09 | 99.4 ± 0.86 | O=C(Nc1ccc(O)c(O)c1F)c1ccc(O)c(O)c1 [DC-0051-F6, N-(2-fluoro-3,4-dihydroxyphenyl)-3,4-dihydroxybenzamide] |
